In patent publication US20100311714A1, “1H-IMIDAZO[4,5-c]QUINOLINONE COMPOUNDS” (priority 2009, published 2010):
Read-outs that look alike come from different tables or passages of the source.

Key:
[1] = target: T1, PI3K delta (Homo sapiens, UniProt O00329); test: PI3K delta kinase assay (Kinase-Glo luminescence); assay type: biochemical
T1 construct: for the full-length p110-d subunit are generated and fused by overlapping PCR; His tag (C); made in house; host or cells: baculovirus BV1060; Tn5 (Trichoplusia ni) or TiniPro insect cells
Summary of the method: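 IC50s derive from 8-point inhibition curves fitted to a 4-parameter logistic model. Reaction: 10 nM purified p110δ/p85 iSH2 fusion, 1 μM ATP, 10 μg/mL PI substrate, pH 7.5 Tris buffer with MgCl2, NaCl, CHAPS and DTT, run 60 min at room temperature; remaining ATP read by Kinase-Glo luminescence.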

[2] = target: T2, mTOR (Homo sapiens, UniProt P42345); test: Biochemical assay for m-TOR by TR-FRET
T2 construct: purchased Invitrogen Corporation (Carlsbad/Calif., USA) PV4753
Summary of the method: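 mTOR (0.5 nM) phosphorylates GFP-4EBP1 (400 nM) with 8 μM ATP at rt in 50 mM HEPES pH 7.5, 10 mM MnCl2, 50 mM NaCl, 1 mM EGTA, 1 mM DTT; compounds 0.003–10 μM final. EDTA stop with Tb-anti-p4EBP1[pT46] antibody (0.5 nM); TR-FRET read after 15 min against no-enzyme and vehicle controls.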

T1 sequence (O00329 with tags, fused parts or gaps limits assumed): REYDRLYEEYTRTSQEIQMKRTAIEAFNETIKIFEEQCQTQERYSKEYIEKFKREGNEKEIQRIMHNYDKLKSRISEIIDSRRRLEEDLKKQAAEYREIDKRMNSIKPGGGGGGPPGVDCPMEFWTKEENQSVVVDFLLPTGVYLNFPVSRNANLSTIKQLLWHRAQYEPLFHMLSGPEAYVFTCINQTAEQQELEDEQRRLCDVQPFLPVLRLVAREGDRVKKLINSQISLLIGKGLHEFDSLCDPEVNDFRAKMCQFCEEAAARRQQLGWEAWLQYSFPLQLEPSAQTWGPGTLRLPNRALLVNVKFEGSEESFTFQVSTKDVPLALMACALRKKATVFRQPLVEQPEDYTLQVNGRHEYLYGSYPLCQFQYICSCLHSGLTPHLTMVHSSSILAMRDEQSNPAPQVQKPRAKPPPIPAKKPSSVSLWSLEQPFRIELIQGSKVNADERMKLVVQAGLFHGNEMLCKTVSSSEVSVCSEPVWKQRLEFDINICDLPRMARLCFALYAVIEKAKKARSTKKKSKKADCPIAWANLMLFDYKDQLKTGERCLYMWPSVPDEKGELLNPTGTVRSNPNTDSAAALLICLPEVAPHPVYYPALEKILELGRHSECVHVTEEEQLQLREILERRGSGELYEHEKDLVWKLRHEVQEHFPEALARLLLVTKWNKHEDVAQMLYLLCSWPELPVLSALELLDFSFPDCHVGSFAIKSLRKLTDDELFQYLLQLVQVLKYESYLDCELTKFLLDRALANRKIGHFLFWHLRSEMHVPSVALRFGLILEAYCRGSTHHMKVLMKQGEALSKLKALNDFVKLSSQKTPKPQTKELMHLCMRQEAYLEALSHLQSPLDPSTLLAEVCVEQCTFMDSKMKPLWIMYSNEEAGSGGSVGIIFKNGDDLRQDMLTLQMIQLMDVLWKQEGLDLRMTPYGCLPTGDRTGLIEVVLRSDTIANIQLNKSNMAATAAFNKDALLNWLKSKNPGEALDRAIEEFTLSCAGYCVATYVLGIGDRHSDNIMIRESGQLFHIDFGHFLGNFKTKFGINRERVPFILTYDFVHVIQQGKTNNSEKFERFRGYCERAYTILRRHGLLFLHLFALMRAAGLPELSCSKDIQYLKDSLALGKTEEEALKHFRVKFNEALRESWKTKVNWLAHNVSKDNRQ
T2 sequence (P42345 1360-2549 limits assumed): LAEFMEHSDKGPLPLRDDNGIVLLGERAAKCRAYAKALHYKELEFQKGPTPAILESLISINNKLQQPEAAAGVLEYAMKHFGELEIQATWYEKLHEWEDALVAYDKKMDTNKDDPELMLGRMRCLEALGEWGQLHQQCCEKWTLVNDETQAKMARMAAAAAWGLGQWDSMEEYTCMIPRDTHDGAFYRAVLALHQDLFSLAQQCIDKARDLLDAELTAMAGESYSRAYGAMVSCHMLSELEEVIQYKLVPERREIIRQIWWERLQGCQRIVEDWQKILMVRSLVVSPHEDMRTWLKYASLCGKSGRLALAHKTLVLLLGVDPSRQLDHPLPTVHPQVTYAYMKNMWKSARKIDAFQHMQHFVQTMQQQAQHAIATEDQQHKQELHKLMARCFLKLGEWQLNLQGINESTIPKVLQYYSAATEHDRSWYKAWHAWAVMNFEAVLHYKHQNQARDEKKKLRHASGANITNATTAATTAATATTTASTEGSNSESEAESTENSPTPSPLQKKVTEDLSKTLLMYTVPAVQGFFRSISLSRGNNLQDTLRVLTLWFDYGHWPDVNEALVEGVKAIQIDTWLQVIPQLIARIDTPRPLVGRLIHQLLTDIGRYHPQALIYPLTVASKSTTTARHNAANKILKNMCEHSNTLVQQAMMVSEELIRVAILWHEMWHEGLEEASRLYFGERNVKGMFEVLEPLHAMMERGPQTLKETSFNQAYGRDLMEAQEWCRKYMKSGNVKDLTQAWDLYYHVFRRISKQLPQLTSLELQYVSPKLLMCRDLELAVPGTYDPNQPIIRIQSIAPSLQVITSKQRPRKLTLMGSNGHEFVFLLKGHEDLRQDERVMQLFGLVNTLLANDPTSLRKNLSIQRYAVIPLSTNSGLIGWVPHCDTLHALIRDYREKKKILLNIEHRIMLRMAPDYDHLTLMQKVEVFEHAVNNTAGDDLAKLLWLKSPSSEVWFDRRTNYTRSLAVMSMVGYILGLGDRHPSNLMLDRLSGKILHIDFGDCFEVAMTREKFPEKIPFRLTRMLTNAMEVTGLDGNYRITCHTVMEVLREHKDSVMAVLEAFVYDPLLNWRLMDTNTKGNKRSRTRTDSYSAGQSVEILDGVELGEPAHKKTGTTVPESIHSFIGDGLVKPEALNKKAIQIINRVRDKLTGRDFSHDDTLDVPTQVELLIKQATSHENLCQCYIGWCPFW

Row | SMILES | IC50 ([1]; read-out: EPK_PI3Kdelta/IC50) | IC50 ([2]; read-out: EPK_mTOR/IC50) | IC50 ([1]; read-out: PI3Kdelta/IC50) | IC50 ([2]; read-out: mTOR/IC50)
1 | CCNc1cc(-c2ccc3ncc4c(c3c2)n(-c2ccc(N3CCC3)nc2C)c(=O)n4C)cnc1CO [Example 23.8, 1-(6-Azetidin-1-yl-2-methyl-pyridin-3-yl)-8-(5-ethylamino-6-hydroxymethyl-pyridin-3-yl)-3-methyl-1,3-dihydro-imidazo[4,5-c]quinolin-2-one] | 17 nM | 4 nM |  | 
2 | Cc1nc(F)ccc1-n1c(=O)n(C)c2cnc3ccc(-c4cncc(C(C)(C)O)c4)cc3c21 [Example 7.8, 1-(6-Fluoro-2-methyl-pyridin-3-yl)-8-[5-(1-hydroxy-1-methyl-ethyl)-pyridin-3-yl]-3-methyl-1,3-dihydro-imidazo[4,5-c]quinolin-2-one] | 38 nM | 86 nM |  | 
3 | CNc1ncc(-c2ccc3ncc4c(c3c2)n(-c2ccc(N3CC[C@H](O)C3)nc2C)c(=O)n4C)cn1 [Example 32.1, 1-[6-((S)-3-Hydroxy-pyrrolidin-1-yl)-2-methyl-pyridin-3-yl]-3-methyl-8-(2-methylamino-pyrimidin-5-yl)-1,3-dihydro-imidazo[4,5-c]quinolin-2-one] | 9 nM | 4 nM |  | 
4 | Cc1nc(N2CCC2)ccc1-n1c(=O)n(C)c2cnc3ccc(-c4cncc(OC(C)C)c4)cc3c21 [Example 23.9, 1-(6-Azetidin-1-yl-2-methyl-pyridin-3-yl)-8-(5-isopropoxy-pyridin-3-yl)-3-methyl-1,3-dihydro-imidazo[4,5-c]quinolin-2-one] | 32 nM | 37 nM |  | 
5 | CNc1ncc(-c2ccc3ncc4c(c3c2)n(-c2ccc(N3CC(O)C3)nc2C)c(=O)n4C)cc1F [Example 29.3, 8-(5-Fluoro-6-methylamino-pyridin-3-yl)-1-[6-(3-hydroxy-azetidin-1-yl)-2-methyl-pyridin-3-yl]-3-methyl-1,3-dihydro-imidazo[4,5-c]quinolin-2-one] | 23 nM | 8 nM |  | 
6 | Cc1nc(N2CCC2)ccc1-n1c(=O)n(C)c2cnc3ccc(-c4cncc(N5CCC5)c4)cc3c21 [Example 23.1, 1-(6-Azetidin-1-yl-2-methyl-pyridin-3-yl)-8-(5-azetidin-1-yl-pyridin-3-yl)-3-methyl-1,3-dihydro-imidazo[4,5-c]quinolin-2-one] | 84 nM | 9 nM |  | 

Now from value to molecule:

Row | IC50 ([1]; read-out: EPK_PI3Kdelta/IC50) | IC50 ([2]; read-out: EPK_mTOR/IC50) | IC50 ([1]; read-out: PI3Kdelta/IC50) | IC50 ([2]; read-out: mTOR/IC50) | SMILES
7 | 46 nM | 22 nM |  |  | CNc1cncc(-c2ccc3ncc4c(c3c2)n(-c2cccnc2C)c(=O)n4C)c1 [Example 2.26, 3-Methyl-8-(5-methylamino-pyridin-3-yl)-1-(2-methyl-pyridin-3-yl)-1,3-dihydro-imidazo[4,5-c]quinolin-2-one]
8 |  |  | 35 nM | 18 nM | Cc1ncccc1-n1c(=O)n(C)c2cnc3ccc(-c4ccc(N)nc4)cc3c21 [Example 2.7, 8-(6-Amino-pyridin-3-yl)-3-methyl-1-(2-methyl-pyridin-3-yl)-1,3-dihydro-imidazo[4,5-c]quinolin-2-one]
9 |  |  | 5 nM | 8 nM | Cc1nc(F)ccc1-n1c(=O)n(C)c2cnc3ccc(-c4cnc(N)c(C(F)(F)F)c4)cc3c21 [Example 7.1, 8-(6-Amino-5-trifluoromethyl-pyridin-3-yl)-1-(6-fluoro-2-methyl-pyridin-3-yl)-3-methyl-1,3-dihydro-imidazo[4,5-c]quinolin-2-one]
10 |  |  | 13 nM | 4 nM | COc1ncccc1-n1c(=O)n(C)c2cnc3ccc(-c4cnc5[nH]ccc5c4)cc3c21 [Example 1.2, 1-(2-Methoxy-pyridin-3-yl)-3-methyl-8-(1H-pyrrolo[2,3-b]pyridin-5-yl)-1,3-dihydro-imidazo[4,5-c]quinolin-2-one]
